Test results reported in paper PMC3949622, “Macrocyclic Pyridyl Polyoxazoles: Structure-Activity Studies of the Aminoalkyl Side-Chain on G-Quadruplex Stabilization and Cytotoxic Activity” (Molecules, 2013).

Key:
[1] = system: human telomeric sequence d[T2G3(T2AG3)3A] (hTel) quadruplex DNA; experiment: UV melting of hTel quadruplex DNA (G-quadruplex stabilization); assay type: binding; conditions: hTel 5 µM strand, drug 20 µM; for ΔTtran, hTel quadruplex DNA: change in Ttran induced by compound, UV melting at 295 nm, pH 7.5, K+ 150 mM, uncertainty ± 0.5 °C; for Ttran, hTel quadruplex DNA: first-derivative UV melting at 295 nm, 10 mM potassium phosphate pH 7.5, total K+ 150 mM, no drug: 64.6
Experimental: (§1) Each compound was evaluated for its ability to selectively bind and stabilize G-quadruplex DNA in the presence of K^+ ions (150 mM). Salmon testes (ST) DNA was employed as a model of duplex DNA and the human telomeric sequence d[T2G3(T2AG3)3A], denoted as hTel, was used as a model of quadruplex DNA. This sequence has been shown by Patel and co-workers, to exist as an intramolecular (3 + 1) G-quadruplex in which three strands are oriented in one direction and the fourth is oriented in the opposite direction in K^+ solution [35]. The first-derivative forms of the UV melting profiles for ST DNA and hTel DNA were recorded in the absence and presence of the various macrocycles. The ligand-induced changes, if any, in the transition temperature (Ttran) corresponding to the maxima (for quadruplex DNA) or minima (for duplex DNA) of these first-derivative melting profiles are listed in Table 1 for each macrocycle. With the exception of 8 which has a slight (<1 °C) destabilizing effect, none of the other macrocycles alters the thermal stability of ST duplex DNA to any significant extent and any observed changes in Ttran are within the experimental uncertainty. This observation is consistent with little or no duplex DNA binding by these macrocycles. Similar behavior has been observed for other macrocyclic pyridyl polyoxazoles. Temperature-Dependent Spectrophotometry. Temperature-dependent absorption experiments were conducted on an AVIV Model 14DS Spectrophotometer (Aviv Biomedical, Lakewood, NJ, USA) equipped with a thermoelectrically controlled cell holder. Quartz cells with a path length of 1.0 cm were used for all the absorbance studies. Temperature-dependent absorption profiles were acquired at either 260 nm (for ST duplex DNA) or 295 nm (for hTel quadruplex DNA) with a 5 s averaging time. The temperature was raised in 0.5 °C increments, and the samples were allowed to equilibrate for 1 min at each temperature setting. In the quadruplex melting studies, the hTel concentration was 5 µM in strand (120 μM in nucleotide). When present in these quadruplex studies, the drug concentrations were 20 µM. In the duplex melting studies the ST DNA concentrations were 15 µM base pair (30 μM in nucleotide) and, when present, the drug concentrations were 15 µM. The buffer for all the UV melting experiments contained 10 mM potassium phosphate (pH 7.5) and sufficient KCl (132 mM) to bring the total K^+ concentration to 150 mM. Prior to their use in the UV melting experiments, all nucleic acid solutions were preheated at 90 °C for 5 min and slowly cooled to room temperature over a period of 4 hr.

[2] = system: Salmon testes (ST) duplex DNA; experiment: UV melting of salmon testes duplex DNA; assay type: binding; conditions: ST DNA 15 µM base pair, drug 15 µM; for ΔTtran, salmon testes duplex DNA: change in Ttran induced by compound, UV melting at 260 nm, pH 7.5, K+ 150 mM, uncertainty ± 0.5 °C; for Ttran, salmon testes duplex DNA: first-derivative UV melting at 260 nm, 10 mM potassium phosphate pH 7.5, total K+ 150 mM, no drug: 86.6
Experimental: as §1

RPMI 8402 cells = experiment: MTT cytotoxicity assay, RPMI 8402; assay type: cell-based, human; conditions: continuous exposure for four days, means of at least two determinations ± standard deviation
Experimental: (§2) Each N,N-dimethylamino-substituted macrocycle was also evaluated for cytotoxic activity against a human lymphoblastoma RPMI 8402 and a human epidermoid carcinoma KB3-1 cell line (Table 2). The results from these assays are informative about the relationship of structure to cytotoxic activity among the PyPX macrocyclic G-quadruplex stabilizers. […] An explanation for this observation is not clear at this time. The three-carbon analogs 12 and 22 have nearly equivalent activity at both positions, but these longer-chain analogs are generally lower in activity than the two-carbon analogs. Attachment of the dimethylamino group directly to the phenyl ring (8 and 19) leads to compounds having the greatest cytotoxic potency at their respective points of attachment. […] In general analogs that have an even number (0 or 2) of methylene spacer groups are more cytotoxic than those with an odd number. […] Moving the side-chain away from the phenyl ring and onto an oxazole ring also fails to improve cytotoxic activity.
(§3) Cytotoxicity was determined using the MTT-microtiter plate tetrazolinium assay (MTA). The human lymphoblast RPMI 8402 cell line was provided by Dr. Toshiwo Andoh (Aichi Cancer Center Research Institute, Nagoya, Japan). The KB3-1 cell line was obtained from K.V. Chin (The Cancer Institute of New Jersey, New Brunswick, NJ, USA). The cytotoxicity assay was performed using 96-well microtiter plates. Cells were grown in suspension at 37 °C in 5% CO2 and maintained by regular passage in RPMI medium supplemented with 10% heat inactivated fetal bovine serum, L-glutamine (2 mM), penicillin (100 U/mL), and Streptomycin (0.1 mg/mL). For determination of IC50 values, cells were exposed continuously for four days to varying concentrations of drug, and MTT assays were performed at the end of the fourth day. […] All assays were performed at least twice in six replicate wells.

KB3-1 cells = experiment: MTT cytotoxicity assay, KB3-1; assay type: cell-based, human; conditions: continuous exposure for four days, means of at least two determinations ± standard deviation, read-out: IC50, KB3-1 wt.
Experimental: as §2, §3

[3] = Water-solubility (qualitative); assay type: physicochemical; conditions: qualitative statement, method not given

**Q.** With `CN(C)CCCc1ccc2cc1CNC(=O)c1coc(n1)-c1coc(n1)-c1cccc(n1)-c1nc(co1)-c1nc(co1)C(=O)NC2` [Compound 12, Pyridyl tetraoxazole macrocycle with a 4-[3-(N,N-dimethylamino)propyl] group on the phenyl ring] as the compound, how does the “ΔTtran, hTel quadruplex DNA” value [1] read?
**A.** 7.1 °C

**Q.** And the “Ttran, hTel quadruplex DNA” value [1]?
**A.** 71.7 °C

**Q.** What about the “ΔTtran, salmon testes duplex DNA” value [2] of the same compound?
**A.** −0.4 °C

**Q.** What about the “Ttran, salmon testes duplex DNA” value [2] of the same compound?
**A.** 86.2 °C

**Q.** And the IC50 (RPMI 8402 cells)?
**A.** 400 nM

**Q.** And the IC50 (KB3-1 cells)?
**A.** 250 ± 70 nM

**Q.** What does the source list for `CN(C)c1cc2cc(c1)CNC(=O)c1coc(n1)-c1coc(n1)-c1cccc(n1)-c1nc(co1)-c1nc(co1)C(=O)NC2` [Compound 19, Pyridyl tetraoxazole macrocycle with a 5-N,N-dimethylamino group on the phenyl ring]?
**A.** ΔTtran, hTel quadruplex DNA [1]: 15.5 °C; Ttran, hTel quadruplex DNA [1]: 80.1 °C; ΔTtran, salmon testes duplex DNA [2]: −0.5 °C; Ttran, salmon testes duplex DNA [2]: 86.1 °C; IC50 (RPMI 8402 cells): 60 ± 10 nM; IC50 (KB3-1 cells): 30 nM; water-solubility [3]: significantly less water-soluble

**Q.** Which “ΔTtran, hTel quadruplex DNA” value [1] does the source give for `CN(C)CCc1ccc2cc1CNC(=O)c1coc(n1)-c1coc(n1)-c1cccc(n1)-c1nc(co1)-c1nc(co1)C(=O)NC2` [Compound 11, Pyridyl tetraoxazole macrocycle with a 4-[2-(N,N-dimethylamino)ethyl] group on the phenyl ring] here?
**A.** 24.6 °C

**Q.** What about the “Ttran, hTel quadruplex DNA” value [1] of the same compound?
**A.** 89.2 °C

**Q.** What about the “ΔTtran, salmon testes duplex DNA” value [2] of the same compound?
**A.** −0.4 °C

**Q.** What about the “Ttran, salmon testes duplex DNA” value [2] of the same compound?
**A.** 86.2 °C

**Q.** And the IC50 (RPMI 8402 cells)?
**A.** 500 ± 400 nM

**Q.** What about the IC50 (KB3-1 cells) of the same compound?
**A.** 70 ± 70 nM

**Q.** What does the source list for `CN(C)CCc1oc2nc1C(=O)NCc1cccc(c1)CNC(=O)c1coc(n1)-c1coc(n1)-c1cccc(n1)-c1nc-2co1` [Compound 36, Pyridyl tetraoxazole macrocycle with a single 2-(N,N-dimethylamino)ethyl side chain]?
**A.** ΔTtran, hTel quadruplex DNA [1]: 4.6 °C; Ttran, hTel quadruplex DNA [1]: 69.2 °C; ΔTtran, salmon testes duplex DNA [2]: −0.4 °C; Ttran, salmon testes duplex DNA [2]: 86.2 °C; IC50 (RPMI 8402 cells): 280 ± 40 nM; IC50 (KB3-1 cells): 140 ± 20 nM; water-solubility [3]: good water-solubility

**Q.** What does the source list for `CN(C)CCCc1cc2cc(c1)CNC(=O)c1coc(n1)-c1coc(n1)-c1cccc(n1)-c1nc(co1)-c1nc(co1)C(=O)NC2` [Compound 22, Pyridyl tetraoxazole macrocycle with a 5-[3-(N,N-dimethylamino)propyl] group on the phenyl ring]?
**A.** ΔTtran, hTel quadruplex DNA [1]: 28.6 °C; Ttran, hTel quadruplex DNA [1]: 93.2 °C; ΔTtran, salmon testes duplex DNA [2]: −0.4 °C; Ttran, salmon testes duplex DNA [2]: 86.2 °C; IC50 (RPMI 8402 cells): 500 ± 100 nM; IC50 (KB3-1 cells): 220 ± 130 nM

**Q.** Which “ΔTtran, hTel quadruplex DNA” value [1] does the source give for `CN(C)CCc1oc2nc1C(=O)NCc1cccc(c1)CNC(=O)c1nc(oc1CCN(C)C)-c1coc(n1)-c1cccc(n1)-c1nc-2co1` [Compound 37, Pyridyl tetraoxazole macrocycle with two 2-(N,N-dimethylamino)ethyl side chains] here?
**A.** 1.6 °C

**Q.** What about the “Ttran, hTel quadruplex DNA” value [1] of the same compound?
**A.** 66.2 °C

**Q.** And the “ΔTtran, salmon testes duplex DNA” value [2]?
**A.** −0.4 °C

**Q.** And the “Ttran, salmon testes duplex DNA” value [2]?
**A.** 86.2 °C

**Q.** And the IC50 (RPMI 8402 cells)?
**A.** 1500 nM

**Q.** And the IC50 (KB3-1 cells)?
**A.** 400 ± 100 nM

**Q.** For `CN(C)Cc1cc2cc(c1)CNC(=O)c1coc(n1)-c1coc(n1)-c1cccc(n1)-c1nc(co1)-c1nc(co1)C(=O)NC2` [Compound 20, Pyridyl tetraoxazole macrocycle with a 5-(N,N-dimethylaminomethyl) group on the phenyl ring], which “ΔTtran, hTel quadruplex DNA” value [1] is on record?
**A.** 0.1 °C

**Q.** And the “Ttran, hTel quadruplex DNA” value [1]?
**A.** 64.7 °C

**Q.** What about the “ΔTtran, salmon testes duplex DNA” value [2] of the same compound?
**A.** −0.4 °C

**Q.** What about the “Ttran, salmon testes duplex DNA” value [2] of the same compound?
**A.** 86.2 °C

**Q.** And the IC50 (RPMI 8402 cells)?
**A.** 7000 ± 4200 nM

**Q.** What about the IC50 (KB3-1 cells) of the same compound?
**A.** 5500 ± 700 nM
